Reference: ChEMBL document CHEMBL5291721, “A preclinical secondary pharmacology resource illuminates target-adverse drug reaction associations of marketed drugs” (Nat Commun, 2023)

How the values were obtained:
[1] = biological target: Vascular endothelial growth factor receptor 2 (Homo sapiens, UniProt P35968); type: functional
Estrogen receptor = biological target: T1, Estrogen receptor (Homo sapiens, UniProt P03372)
T1 sequence (P03372 whole entry): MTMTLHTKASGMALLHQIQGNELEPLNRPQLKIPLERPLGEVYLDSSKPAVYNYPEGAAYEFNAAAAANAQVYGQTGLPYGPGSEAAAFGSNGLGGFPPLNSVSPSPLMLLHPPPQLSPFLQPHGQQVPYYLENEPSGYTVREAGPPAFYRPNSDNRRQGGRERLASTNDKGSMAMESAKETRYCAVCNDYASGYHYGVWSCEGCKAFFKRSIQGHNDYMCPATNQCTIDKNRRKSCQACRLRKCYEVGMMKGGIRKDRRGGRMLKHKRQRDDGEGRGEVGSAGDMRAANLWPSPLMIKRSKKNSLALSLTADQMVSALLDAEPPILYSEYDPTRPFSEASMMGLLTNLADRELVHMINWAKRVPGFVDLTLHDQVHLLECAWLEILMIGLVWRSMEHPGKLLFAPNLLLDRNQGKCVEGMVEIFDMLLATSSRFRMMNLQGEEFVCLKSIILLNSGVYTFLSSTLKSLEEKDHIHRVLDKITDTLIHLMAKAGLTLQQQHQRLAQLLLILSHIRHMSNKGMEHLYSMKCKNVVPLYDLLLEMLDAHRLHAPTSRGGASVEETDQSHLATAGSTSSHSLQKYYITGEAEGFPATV

Prothrombin = Prothrombin (Homo sapiens, UniProt P00734); type: functional
Thromboxane A2 receptor [2] = biological target: T2, Thromboxane A2 receptor (Homo sapiens, UniProt P21731); type: functional, cell-based
T2 sequence (P21731 whole entry): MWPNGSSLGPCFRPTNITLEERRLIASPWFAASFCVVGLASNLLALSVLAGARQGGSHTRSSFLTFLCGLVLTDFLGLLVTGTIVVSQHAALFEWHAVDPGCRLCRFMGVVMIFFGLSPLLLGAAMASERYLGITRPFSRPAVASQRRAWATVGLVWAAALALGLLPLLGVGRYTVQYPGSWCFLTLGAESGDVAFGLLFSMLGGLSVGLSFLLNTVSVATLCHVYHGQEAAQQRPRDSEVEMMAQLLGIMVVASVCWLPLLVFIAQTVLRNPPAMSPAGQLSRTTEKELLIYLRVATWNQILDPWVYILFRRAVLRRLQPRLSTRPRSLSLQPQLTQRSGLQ

[3] = biological target: 3',5'-cyclic-AMP phosphodiesterase 4A (Homo sapiens, UniProt P27815); type: functional
Adenosine receptor A1 = biological target: T3, Adenosine receptor A1 (Homo sapiens, UniProt P30542)
T3 sequence (P30542 whole entry): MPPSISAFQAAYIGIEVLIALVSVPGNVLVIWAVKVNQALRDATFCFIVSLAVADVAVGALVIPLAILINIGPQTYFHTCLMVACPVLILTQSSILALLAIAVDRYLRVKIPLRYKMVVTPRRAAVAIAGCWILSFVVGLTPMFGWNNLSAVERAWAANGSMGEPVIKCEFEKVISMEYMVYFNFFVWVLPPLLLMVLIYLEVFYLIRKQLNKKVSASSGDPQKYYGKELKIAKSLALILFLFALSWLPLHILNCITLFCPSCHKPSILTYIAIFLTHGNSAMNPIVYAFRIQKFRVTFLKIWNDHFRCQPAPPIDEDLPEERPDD

Thromboxane A2 receptor [4] = biological target: T2, Thromboxane A2 receptor; type: functional, cell-based; remark: listed apart in the source
Adenosine receptor A3 = biological target: T4, Adenosine receptor A3 (Homo sapiens, UniProt P0DMS8)
T4 sequence (P0DMS8 whole entry): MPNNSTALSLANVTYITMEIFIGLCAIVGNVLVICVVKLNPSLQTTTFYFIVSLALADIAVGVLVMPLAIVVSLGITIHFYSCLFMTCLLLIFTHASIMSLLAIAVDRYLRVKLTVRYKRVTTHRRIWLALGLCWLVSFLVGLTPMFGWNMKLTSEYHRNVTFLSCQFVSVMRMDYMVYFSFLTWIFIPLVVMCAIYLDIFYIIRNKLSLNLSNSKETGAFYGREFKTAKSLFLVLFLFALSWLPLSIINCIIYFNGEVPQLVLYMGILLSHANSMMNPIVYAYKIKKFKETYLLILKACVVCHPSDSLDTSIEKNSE

Progesterone receptor = biological target: T5, Progesterone receptor (Homo sapiens, UniProt P06401)
T5 sequence (P06401 whole entry): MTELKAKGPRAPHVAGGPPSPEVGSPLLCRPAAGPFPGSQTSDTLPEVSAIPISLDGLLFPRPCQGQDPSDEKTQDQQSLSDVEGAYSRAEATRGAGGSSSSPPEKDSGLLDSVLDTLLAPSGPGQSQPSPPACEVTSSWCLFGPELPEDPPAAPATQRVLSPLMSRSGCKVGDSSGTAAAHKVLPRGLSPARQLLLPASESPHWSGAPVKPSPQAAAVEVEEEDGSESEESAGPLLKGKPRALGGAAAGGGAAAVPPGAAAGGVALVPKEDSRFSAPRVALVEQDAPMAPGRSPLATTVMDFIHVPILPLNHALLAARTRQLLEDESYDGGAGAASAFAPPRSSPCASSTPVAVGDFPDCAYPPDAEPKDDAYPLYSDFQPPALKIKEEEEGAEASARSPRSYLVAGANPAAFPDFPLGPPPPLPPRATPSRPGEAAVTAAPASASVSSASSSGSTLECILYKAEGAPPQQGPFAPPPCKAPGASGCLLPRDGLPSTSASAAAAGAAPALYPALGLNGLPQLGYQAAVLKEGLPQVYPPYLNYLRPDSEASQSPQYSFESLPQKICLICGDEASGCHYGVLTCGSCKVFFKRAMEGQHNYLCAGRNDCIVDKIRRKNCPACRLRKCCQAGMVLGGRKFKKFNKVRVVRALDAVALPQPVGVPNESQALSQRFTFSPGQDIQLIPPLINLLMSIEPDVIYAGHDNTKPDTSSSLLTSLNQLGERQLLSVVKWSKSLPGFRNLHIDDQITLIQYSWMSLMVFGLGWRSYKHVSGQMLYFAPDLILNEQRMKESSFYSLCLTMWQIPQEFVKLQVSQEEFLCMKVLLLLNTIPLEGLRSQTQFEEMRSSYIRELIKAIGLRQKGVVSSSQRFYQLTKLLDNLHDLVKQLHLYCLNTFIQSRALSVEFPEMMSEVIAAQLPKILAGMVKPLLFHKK

[5] = biological target: T6, Prostaglandin G/H synthase 1 (Homo sapiens, UniProt P23219); type: functional
[6] = biological target: T6, Prostaglandin G/H synthase 1; type: functional; remark: listed apart in the source
[7] = biological target: cGMP-inhibited 3',5'-cyclic phosphodiesterase 3A (Homo sapiens, UniProt Q14432); type: functional
Acetylcholinesterase = Acetylcholinesterase (Homo sapiens, UniProt P22303); type: functional
D(4) dopamine receptor = biological target: T7, D(4) dopamine receptor (Homo sapiens, UniProt P21917)
T7 sequence (P21917 whole entry): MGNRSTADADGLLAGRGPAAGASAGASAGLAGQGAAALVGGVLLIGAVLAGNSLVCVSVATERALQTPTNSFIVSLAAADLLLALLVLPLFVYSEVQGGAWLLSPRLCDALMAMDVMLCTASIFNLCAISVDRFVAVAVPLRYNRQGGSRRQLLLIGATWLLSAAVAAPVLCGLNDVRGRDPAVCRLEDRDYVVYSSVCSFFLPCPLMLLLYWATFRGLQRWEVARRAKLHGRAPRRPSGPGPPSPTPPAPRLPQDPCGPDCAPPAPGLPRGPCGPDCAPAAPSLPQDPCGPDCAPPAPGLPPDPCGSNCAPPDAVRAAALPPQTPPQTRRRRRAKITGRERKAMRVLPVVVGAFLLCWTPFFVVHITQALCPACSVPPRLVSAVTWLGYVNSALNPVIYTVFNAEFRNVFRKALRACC

[8] = biological target: Voltage-gated inwardly rectifying potassium channel KCNH2 (Homo sapiens, UniProt Q12809); type: functional; settings: read-out: AC50
Further: assay procedure not described here.

T6 sequence (P23219 whole entry): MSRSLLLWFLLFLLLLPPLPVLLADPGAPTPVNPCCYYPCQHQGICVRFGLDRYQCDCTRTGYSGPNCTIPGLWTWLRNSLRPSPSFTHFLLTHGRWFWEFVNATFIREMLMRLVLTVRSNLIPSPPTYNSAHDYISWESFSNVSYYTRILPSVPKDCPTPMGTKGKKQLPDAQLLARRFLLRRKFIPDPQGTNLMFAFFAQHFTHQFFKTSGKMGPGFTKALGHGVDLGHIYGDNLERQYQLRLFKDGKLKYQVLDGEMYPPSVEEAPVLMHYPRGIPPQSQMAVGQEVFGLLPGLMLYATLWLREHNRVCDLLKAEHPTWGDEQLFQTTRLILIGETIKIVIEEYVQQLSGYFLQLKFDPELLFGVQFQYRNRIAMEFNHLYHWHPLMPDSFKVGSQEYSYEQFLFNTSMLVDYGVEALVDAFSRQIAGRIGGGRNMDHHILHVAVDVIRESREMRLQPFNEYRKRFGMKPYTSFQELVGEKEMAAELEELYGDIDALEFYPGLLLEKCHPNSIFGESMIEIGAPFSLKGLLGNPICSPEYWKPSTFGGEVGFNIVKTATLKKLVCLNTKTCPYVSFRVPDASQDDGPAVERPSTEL
Acetylcholinesterase, sequence (P22303 whole entry): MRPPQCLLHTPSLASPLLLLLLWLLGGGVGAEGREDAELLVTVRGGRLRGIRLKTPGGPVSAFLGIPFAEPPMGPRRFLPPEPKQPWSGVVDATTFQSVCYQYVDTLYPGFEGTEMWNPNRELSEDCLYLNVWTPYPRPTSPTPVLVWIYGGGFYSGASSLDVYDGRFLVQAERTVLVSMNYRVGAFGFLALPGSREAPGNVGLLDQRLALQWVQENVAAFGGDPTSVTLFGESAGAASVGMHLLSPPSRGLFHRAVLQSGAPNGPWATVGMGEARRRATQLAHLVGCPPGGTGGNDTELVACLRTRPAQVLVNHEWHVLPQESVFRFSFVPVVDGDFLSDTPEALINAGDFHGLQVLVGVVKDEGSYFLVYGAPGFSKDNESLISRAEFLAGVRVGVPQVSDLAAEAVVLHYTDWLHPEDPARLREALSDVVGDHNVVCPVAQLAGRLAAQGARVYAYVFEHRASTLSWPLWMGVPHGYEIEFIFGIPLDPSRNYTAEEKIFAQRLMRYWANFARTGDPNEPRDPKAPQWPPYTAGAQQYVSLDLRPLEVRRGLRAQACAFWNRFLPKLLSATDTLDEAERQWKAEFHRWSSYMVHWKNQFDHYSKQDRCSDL
Voltage-gated inwardly rectifying potassium channel KCNH2, sequence (Q12809 whole entry): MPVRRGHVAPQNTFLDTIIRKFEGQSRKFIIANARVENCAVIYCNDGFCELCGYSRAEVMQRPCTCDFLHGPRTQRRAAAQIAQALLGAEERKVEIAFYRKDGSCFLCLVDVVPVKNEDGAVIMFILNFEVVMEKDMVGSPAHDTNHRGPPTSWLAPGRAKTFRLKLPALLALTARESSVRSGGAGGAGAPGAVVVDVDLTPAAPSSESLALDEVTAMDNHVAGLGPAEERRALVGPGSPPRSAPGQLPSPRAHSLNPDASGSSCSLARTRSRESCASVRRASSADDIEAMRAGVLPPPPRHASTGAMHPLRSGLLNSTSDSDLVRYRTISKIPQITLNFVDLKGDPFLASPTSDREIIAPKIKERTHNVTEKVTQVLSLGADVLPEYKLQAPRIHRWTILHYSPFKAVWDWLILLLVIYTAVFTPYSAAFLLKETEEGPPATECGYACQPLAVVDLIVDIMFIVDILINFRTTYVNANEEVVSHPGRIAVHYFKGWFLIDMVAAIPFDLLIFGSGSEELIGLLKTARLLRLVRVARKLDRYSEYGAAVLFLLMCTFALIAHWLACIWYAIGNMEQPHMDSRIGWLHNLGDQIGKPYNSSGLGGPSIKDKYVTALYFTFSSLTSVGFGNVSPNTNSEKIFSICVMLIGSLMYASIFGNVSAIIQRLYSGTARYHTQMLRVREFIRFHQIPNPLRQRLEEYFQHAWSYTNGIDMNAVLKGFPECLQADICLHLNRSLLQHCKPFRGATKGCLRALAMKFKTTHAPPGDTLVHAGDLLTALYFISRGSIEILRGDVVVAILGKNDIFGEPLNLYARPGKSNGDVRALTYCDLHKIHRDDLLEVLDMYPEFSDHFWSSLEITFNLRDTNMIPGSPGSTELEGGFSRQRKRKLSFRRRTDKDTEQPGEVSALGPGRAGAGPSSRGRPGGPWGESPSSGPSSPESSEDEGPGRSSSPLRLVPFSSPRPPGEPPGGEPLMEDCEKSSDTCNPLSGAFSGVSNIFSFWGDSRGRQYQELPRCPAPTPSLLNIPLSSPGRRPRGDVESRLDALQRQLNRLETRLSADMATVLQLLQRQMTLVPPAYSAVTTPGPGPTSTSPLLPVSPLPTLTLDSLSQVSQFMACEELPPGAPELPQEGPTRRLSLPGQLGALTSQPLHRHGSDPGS
cGMP-inhibited 3',5'-cyclic phosphodiesterase 3A, sequence (Q14432 whole entry): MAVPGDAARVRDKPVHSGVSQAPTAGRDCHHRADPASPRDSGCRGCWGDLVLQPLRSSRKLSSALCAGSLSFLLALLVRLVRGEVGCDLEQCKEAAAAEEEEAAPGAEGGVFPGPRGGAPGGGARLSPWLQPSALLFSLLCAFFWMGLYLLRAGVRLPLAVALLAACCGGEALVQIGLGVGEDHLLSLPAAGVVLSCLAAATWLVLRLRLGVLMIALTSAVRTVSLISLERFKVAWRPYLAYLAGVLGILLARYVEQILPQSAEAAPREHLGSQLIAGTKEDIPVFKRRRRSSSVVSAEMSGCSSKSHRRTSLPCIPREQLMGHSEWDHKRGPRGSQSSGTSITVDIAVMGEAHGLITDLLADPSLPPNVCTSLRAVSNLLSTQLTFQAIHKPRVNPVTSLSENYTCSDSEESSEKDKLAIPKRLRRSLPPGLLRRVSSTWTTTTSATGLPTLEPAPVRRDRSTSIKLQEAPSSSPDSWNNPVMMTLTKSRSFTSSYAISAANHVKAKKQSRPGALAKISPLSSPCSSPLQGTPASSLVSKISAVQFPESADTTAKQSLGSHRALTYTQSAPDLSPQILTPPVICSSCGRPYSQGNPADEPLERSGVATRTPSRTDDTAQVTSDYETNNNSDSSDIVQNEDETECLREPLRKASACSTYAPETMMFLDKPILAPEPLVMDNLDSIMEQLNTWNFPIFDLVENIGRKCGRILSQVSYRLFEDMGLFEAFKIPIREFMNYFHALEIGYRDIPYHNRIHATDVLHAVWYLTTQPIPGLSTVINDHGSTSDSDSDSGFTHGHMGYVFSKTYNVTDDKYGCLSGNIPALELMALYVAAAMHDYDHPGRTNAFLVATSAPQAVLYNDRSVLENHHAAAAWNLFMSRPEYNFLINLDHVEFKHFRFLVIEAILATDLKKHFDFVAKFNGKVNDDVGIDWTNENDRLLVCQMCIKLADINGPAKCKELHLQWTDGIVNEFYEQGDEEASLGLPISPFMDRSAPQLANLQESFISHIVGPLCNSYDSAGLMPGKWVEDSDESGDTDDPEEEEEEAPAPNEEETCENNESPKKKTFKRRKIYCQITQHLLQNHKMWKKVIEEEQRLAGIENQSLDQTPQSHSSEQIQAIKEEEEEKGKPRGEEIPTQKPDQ
3',5'-cyclic-AMP phosphodiesterase 4A, sequence (P27815 whole entry): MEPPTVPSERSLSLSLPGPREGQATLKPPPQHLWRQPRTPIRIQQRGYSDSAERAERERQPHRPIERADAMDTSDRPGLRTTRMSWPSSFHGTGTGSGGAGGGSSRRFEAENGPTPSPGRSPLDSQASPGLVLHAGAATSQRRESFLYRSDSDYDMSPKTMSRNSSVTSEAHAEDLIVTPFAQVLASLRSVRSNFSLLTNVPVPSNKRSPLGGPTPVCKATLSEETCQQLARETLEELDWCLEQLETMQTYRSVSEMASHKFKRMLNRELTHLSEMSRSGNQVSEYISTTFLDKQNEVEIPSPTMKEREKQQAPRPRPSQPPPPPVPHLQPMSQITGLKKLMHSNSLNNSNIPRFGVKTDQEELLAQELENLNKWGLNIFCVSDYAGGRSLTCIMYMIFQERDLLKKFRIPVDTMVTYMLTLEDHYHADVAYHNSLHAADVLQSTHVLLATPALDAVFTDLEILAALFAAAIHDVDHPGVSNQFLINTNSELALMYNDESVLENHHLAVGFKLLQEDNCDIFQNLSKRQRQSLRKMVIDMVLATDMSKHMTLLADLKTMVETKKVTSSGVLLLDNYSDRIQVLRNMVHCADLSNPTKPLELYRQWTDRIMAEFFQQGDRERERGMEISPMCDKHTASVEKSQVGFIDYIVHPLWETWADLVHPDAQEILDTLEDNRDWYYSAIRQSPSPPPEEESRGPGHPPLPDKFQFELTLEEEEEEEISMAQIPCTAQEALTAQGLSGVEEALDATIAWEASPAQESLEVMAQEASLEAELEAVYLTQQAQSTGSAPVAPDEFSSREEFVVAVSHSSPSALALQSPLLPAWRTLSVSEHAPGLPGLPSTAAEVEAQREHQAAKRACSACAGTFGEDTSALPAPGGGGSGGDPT

SMILES | AC50 [1] | AC50 (Estrogen receptor) | AC50 (Prothrombin) | AC50 (Thromboxane A2 receptor [2]) | AC50 [3] | AC50 (Adenosine receptor A1) | AC50 (Thromboxane A2 receptor [4]) | AC50 (Adenosine receptor A3) | AC50 (Progesterone receptor) | AC50 [5] | AC50 [6] | AC50 [7] | AC50 (Acetylcholinesterase) | AC50 (D(4) dopamine receptor) | AC50 [8]
C=CC[C@]1(O)CC[C@H]2[C@@H]3CCC4=CCCC[C@@H]4[C@H]3CC[C@@]21C [ALLYLESTRENOL] | > 30 µM | 0.331 µM | > 30 µM | > 30 µM | > 30 µM | > 30 µM | > 30 µM | 3.91 µM | 0.0039 µM | > 30 µM | 25.5 µM | > 30 µM | > 30 µM | – | –
COC(=O)[C@@H]1[C@H]2C[C@H]3c4[nH]c5ccccc5c4CCN3C[C@@H]2CC[C@@H]1O [YOHIMBINE] | – | – | – | – | – | – | – | – | – | – | – | – | > 0.3 µM | > 10 µM | 29.1 µM
